Data taken from DBAASP.
Converted amounts (≈) assume the structure as drawn. “And” between values parts separate entries of the source, which are not always exact repeats. Equal values may be shown once. Values belong to the compound of their own block, whether it stands above or below them.

Legend:
Assay in all cases: ≥ marks a high value that may be exact or a test limit, other limits are often not marked, values filed in µg/mL are converted to µM
[1] = test system: Malassezia sympodialis ATCC 42132
[2] = test system: Candida albicans CCARM 14022
[3] = test system: Candida albicans CCARM 14020
Candida albicans SC5314 = test system: Candida albicans SC5314
[4] = test system: Achromobacter xylosoxidans
[5] = test system: Pseudomonas aeruginosa M1426
[6] = test system: Pseudomonas aeruginosa M76
Staphylococcus aureus = test system: Staphylococcus aureus
Candida albicans = test system: Candida albicans
Escherichia coli UB1005 = test system: Escherichia coli UB1005
Pseudomonas fluorescens = test system: Pseudomonas fluorescens
[7] = test system: Salmonella enterica serovar Typhimurium
[8] = test system: Pseudomonas aeruginosa M1251
[9] = test system: Stenotrophomonas maltophilia
Ralstonia pickettii = test system: Ralstonia pickettii
[10] = test system: Pseudomonas aeruginosa M917
[11] = test system: Pseudomonas aeruginosa PAO1
Pseudomonas aeruginosa = test system: Pseudomonas aeruginosa
[12] = test system: Pseudomonas aeruginosa R70
[13] = test system: Enterococcus faecium CCARM 5028
[14] = test system: Enterococcus faecium CCARM 5029
[15] = test system: Bacillus subtilis KCCM 11495
[16] = test system: Escherichia coli KCCM 11569

MIC [1]: 5.01 µM (≈ 15.2 µg/mL)
MIC [2]: 3.73 µM and 10.5 µM
MIC [3]: 3.73 µM and 10.5 µM
MIC (Candida albicans SC5314): 3.73 µM and 10.5 µM
Compound: C[C@H](NC(=O)[C@H](Cc1cnc[nH]1)NC(=O)[C@H](CO)NC(=O)[C@@H](N)CC(=O)O)C(=O)N[C@@H](CCCCN)C(=O)N[C@@H](CCCN=C(N)N)C(=O)N[C@@H](Cc1cnc[nH]1)C(=O)N[C@@H](Cc1cnc[nH]1)C(=O)NCC(=O)N[C@@H](Cc1ccc(O)cc1)C(=O)N[C@@H](CCCCN)C(=O)N[C@@H](CCCN=C(N)N)C(=O)N[C@@H](CCCCN)C(=O)N[C@@H](Cc1ccccc1)C(=O)N[C@@H](Cc1cnc[nH]1)C(=O)N[C@@H](CCC(=O)O)C(=O)N[C@@H](CCCCN)C(=O)N[C@@H](Cc1cnc[nH]1)C(=O)N[C@@H](Cc1cnc[nH]1)C(=O)N[C@@H](CO)C(=O)N[C@@H](Cc1cnc[nH]1)C(=O)N[C@@H](CCCN=C(N)N)C(=O)NCC(=O)N[C@@H](Cc1ccc(O)cc1)C(N)=O [DSHAKRHHGYKRKFHEKHHSHRGY]

MIC [4]: 5.18 µM (≈ 8 µg/mL)
MIC [5]: 10.4 µM (≈ 16 µg/mL)
MIC [6]: 2.59 µM (≈ 4 µg/mL)
MIC (Staphylococcus aureus): 10.4 µM (≈ 16 µg/mL)
MIC (Candida albicans): 5.18 µM (≈ 8 µg/mL)
MIC (Escherichia coli UB1005): 2.59 µM (≈ 4 µg/mL)
MIC (Pseudomonas fluorescens): 5.18 µM (≈ 8 µg/mL)
MIC [7]: 2.59 µM (≈ 4 µg/mL)
MIC [8]: 1.29 µM (≈ 2 µg/mL)
MIC [9]: 1.29 µM (≈ 2 µg/mL)
MIC (Ralstonia pickettii): 2.59 µM (≈ 4 µg/mL)
MIC [10]: 10.4 µM (≈ 16 µg/mL)
MIC [11]: 2.59 µM (≈ 4 µg/mL)
MIC (Pseudomonas aeruginosa): 5.18 µM (≈ 8 µg/mL)
MIC [12]: 1.29 µM (≈ 2 µg/mL)
Compound: CC(C)C[C@H](NC(=O)[C@H](CC(C)C)NC(=O)[C@H](CCCCN)NC(=O)[C@H](C)NC(=O)[C@H](CC(C)C)NC(=O)[C@H](CCCCN)NC(=O)[C@H](CCCCN)NC(=O)[C@H](CC(C)C)NC(=O)[C@H](C)NC(=O)[C@H](CCCCN)NC(=O)[C@H](CCCCN)NC(=O)[C@H](Cc1ccc(O)cc1)NC(=O)[C@@H](N)CCCCN)C(N)=O [KYKKALKKLAKLL]

MIC [13]: 0.74 µM and 1.48 µM
MIC [14]: 0.74 µM and 1.48 µM
MIC [15]: 2.96 µM (≈ 5.65 µg/mL)
MIC [16]: 1.48 µM (≈ 2.83 µg/mL)
Compound: CC(C)C[C@H](NC(=O)CNC(=O)[C@H](CCCCN)NC(=O)[C@H](CCCCN)NC(=O)[C@H](CC(C)C)NC(=O)[C@H](CC(C)C)NC(=O)[C@H](C)NC(=O)[C@H](CC(N)=O)NC(=O)[C@H](CC(C)C)NC(=O)[C@@H](N)Cc1c[nH]c2ccccc12)C(=O)N[C@@H](CC(N)=O)C(=O)N[C@@H](CS)C(=O)N[C@@H](C)C(=O)N[C@@H](CCCCN)C(=O)NCC(=O)N[C@H](C(=O)N[C@@H](CC(C)C)C(=O)N[C@@H](C)C(N)=O)C(C)C [WLNALLKKGLNCAKGVLA]
